Measurements from the NIST ThermoML archive (doi:10.1016/j.jct.2016.07.005).

Assay: xn = mol fraction of the nth substance listed
Details: 100 kPa, Liquid; for viscosity: Concentric cylinders viscometry; for mass density: Vibrating tube method

CN1CCC[C@H]1c1cccnc1 [(-)-3-(N-methylpyrrolidino)pyridine] + OCCCO
Details	mass density [kg/m3]	viscosity [mPa·s]
293.15 K, x1 = 0.1	1049.36	63.86
293.15 K, x1 = 0.1999	1045.43	63.55
293.15 K, x1 = 0.3	1041.3	55.97
293.15 K, x1 = 0.3994	1037.05	44.97
293.15 K, x1 = 0.5	1032.67	33.15
293.15 K, x1 = 0.6004	1028.25	22.75
293.15 K, x1 = 0.7	1023.76	14.91
293.15 K, x1 = 0.8	1019.33	9.805
293.15 K, x1 = 0.9	1014.74	6.894
293.15 K, x1 = 1	1010.23	4.694
298.15 K, x1 = 0.1	1045.96	48.97
298.15 K, x1 = 0.1999	1041.83	48.13
298.15 K, x1 = 0.3	1037.55	42.26
298.15 K, x1 = 0.3994	1033.17	34.05
298.15 K, x1 = 0.5	1028.72	25.35
298.15 K, x1 = 0.6004	1024.24	17.71
298.15 K, x1 = 0.7	1019.71	11.93
298.15 K, x1 = 0.8	1015.26	8.105
298.15 K, x1 = 0.9	1010.67	5.832
298.15 K, x1 = 1	1006.16	4.048
303.15 K, x1 = 0.1	1042.55	37.97
303.15 K, x1 = 0.1999	1038.21	36.9
303.15 K, x1 = 0.3	1033.78	32.31
303.15 K, x1 = 0.3994	1029.3	26.12
303.15 K, x1 = 0.5	1024.77	19.64
303.15 K, x1 = 0.6004	1020.24	13.95
303.15 K, x1 = 0.7	1015.68	9.624
303.15 K, x1 = 0.8	1011.2	6.722
303.15 K, x1 = 0.9	1006.61	4.943
303.15 K, x1 = 1	1002.1	3.518
308.15 K, x1 = 0.1	1039.14	29.84
308.15 K, x1 = 0.1999	1034.59	28.71
308.15 K, x1 = 0.3	1030.01	25.12
308.15 K, x1 = 0.3994	1025.41	20.41
308.15 K, x1 = 0.5	1020.81	15.5
308.15 K, x1 = 0.6004	1016.23	11.19
308.15 K, x1 = 0.7	1011.64	7.885
308.15 K, x1 = 0.8	1007.15	5.621
308.15 K, x1 = 0.9	1002.55	4.2
308.15 K, x1 = 1	998.055	3.088
313.15 K, x1 = 0.1	1035.71	23.69
313.15 K, x1 = 0.1999	1030.96	22.59
313.15 K, x1 = 0.3	1026.23	19.74
313.15 K, x1 = 0.3994	1021.52	16.11
313.15 K, x1 = 0.5	1016.85	12.36
313.15 K, x1 = 0.6004	1012.22	9.06
313.15 K, x1 = 0.7	1007.6	6.513
313.15 K, x1 = 0.8	1003.09	4.749
313.15 K, x1 = 0.9	998.498	3.625
313.15 K, x1 = 1	994.014	2.758
318.15 K, x1 = 0.1	1032.27	19.28
318.15 K, x1 = 0.1999	1027.32	18.26
318.15 K, x1 = 0.3	1022.43	15.95
318.15 K, x1 = 0.3994	1017.62	13.08
318.15 K, x1 = 0.5	1012.88	10.14
318.15 K, x1 = 0.6004	1008.21	7.559
318.15 K, x1 = 0.7	1003.56	5.549
318.15 K, x1 = 0.8	999.04	4.128
318.15 K, x1 = 0.9	994.453	3.18
318.15 K, x1 = 1	989.984	2.411
323.15 K, x1 = 0.1	1028.82	15.87
323.15 K, x1 = 0.1999	1023.66	14.94
323.15 K, x1 = 0.3	1018.63	13.05
323.15 K, x1 = 0.3994	1013.72	10.76
323.15 K, x1 = 0.5	1008.9	8.437
323.15 K, x1 = 0.6004	1004.18	6.389
323.15 K, x1 = 0.7	999.506	4.782
323.15 K, x1 = 0.8	994.989	3.625
323.15 K, x1 = 0.9	990.406	2.837
323.15 K, x1 = 1	985.962	2.195
